According to the supplement of paper PMC6045584:
± gives the standard deviation of the averaged measurements.

What was measured:
DASATINIB = compound: Cc1nc(Nc2ncc(C(=O)Nc3c(C)cccc3Cl)s2)cc(N2CCN(CCO)CC2)n1 [DASATINIB]; test: surviving fraction relative to DMSO-only wells; higher = less growth inhibition; conditions: exposure time: 5 days
Procedure, shortened: (§1)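 Continuous five-day exposure to inhibitors at 0.5, 1, 5, 10, 50, 100, 500 and 1000 nM started 24 hours after log-phase tumour cell lines were seeded at 250–500 cells per well in 384-well plates. Luminescence was read after 10 minutes at room temperature. Viability is given as surviving fraction, meaning CellTiter-Glo luminescence normalised to the median of DMSO-only wells.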

XAV-939 = compound: Oc1nc(-c2ccc(C(F)(F)F)cc2)nc2c1CSCC2 [XAV-939]; test: as above; conditions: exposure time: 5 days
Procedure, shortened: as §1

Row | Test System | surviving fraction (DASATINIB; 0.5 nM) | surviving fraction (DASATINIB; 1 nM) | surviving fraction (DASATINIB; 5 nM) | surviving fraction (DASATINIB; 10 nM) | surviving fraction (DASATINIB; 50 nM) | surviving fraction (DASATINIB; 100 nM) | surviving fraction (DASATINIB; 500 nM) | surviving fraction (DASATINIB; 1000 nM) | surviving fraction (XAV-939; 0.5 nM) | surviving fraction (XAV-939; 1 nM) | surviving fraction (XAV-939; 5 nM) | surviving fraction (XAV-939; 10 nM) | surviving fraction (XAV-939; 50 nM) | surviving fraction (XAV-939; 100 nM) | surviving fraction (XAV-939; 500 nM) | surviving fraction (XAV-939; 1000 nM)
1 | LNCAP PROSTATE | 1.14 ± 0.05 | 1.1 ± 0.082 | 1.03 ± 0.075 | 0.941 ± 0.12 | 0.678 ± 0.032 | 0.504 ± 0.053 | 0.572 ± 0.012 | 0.589 ± 0.076 | 0.85 ± 0.076 | 0.83 ± 0.11 | 0.94 ± 0.058 | 0.921 ± 0.054 | 0.797 ± 0.071 | 0.936 ± 0.1 | 0.741 ± 0.12 | 0.713 ± 0.14
2 | MCF7 BREAST | 0.803 ± 0.048 | 0.798 ± 0.043 | 0.816 ± 0.035 | 0.795 ± 0.019 | 0.787 ± 0.051 | 0.741 ± 0.048 | 0.741 ± 0.028 | 0.739 ± 0.037 | 0.941 ± 0.062 | 0.953 ± 0.07 | 0.954 ± 0.033 | 0.937 ± 0.023 | 1.01 ± 0.069 | 1.05 ± 0.041 | 1.03 ± 0.054 | 1.01 ± 0.061
3 | MDAMB134 BREAST | 0.71 ± 0.023 | 0.687 ± 0.0057 | 0.531 ± 0.013 | 0.534 ± 0.096 | 0.704 ± 0.018 | 0.6445 ± 0.0035 | 0.635 ± 0.019 | 0.606 ± 0.0064 | 1.05 ± 0.052 | 0.999 ± 0.041 | 1.06 ± 0.17 | 0.93 ± 0.03 | 1.13 ± 0.1 | 1.06 ± 0.22 | 1.15 ± 0.052 | 1.03 ± 0.051
4 | MDAMB157 BREAST | 0.954 ± 0.12 | 0.915 ± 0.021 | 0.775 ± 0.071 | 0.688 ± 0.074 | 0.438 ± 0.025 | 0.35 ± 0.031 | 0.238 ± 0.04 | 0.232 ± 0.038 | 0.969 ± 0.012 | 0.94 ± 0.11 | 0.974 ± 0.059 | 1.05 ± 0.039 | 0.919 ± 0.084 | 0.934 ± 0.079 | 0.775 ± 0.071 | 0.709 ± 0.074
5 | MDAMB231 BREAST | 0.803 ± 0.011 | 0.794 ± 0.033 | 0.653 ± 0.022 | 0.571 ± 0.02 | 0.25 ± 0.0064 | 0.171 ± 0.0089 | 0.1411 ± 0.0013 | 0.153 ± 0.0031 | 0.957 ± 0.013 | 1.01 ± 0.028 | 0.982 ± 0.021 | 0.983 ± 0.018 | 0.917 ± 0.016 | 0.866 ± 0.025 | 0.656 ± 0.015 | 0.586 ± 0.026
6 | MDAMB361 BREAST | 0.678 ± 0.12 | 0.733 ± 0.081 | 0.668 ± 0.087 | 0.711 ± 0.16 | 0.799 ± 0.058 | 0.781 ± 0.039 | 0.75 ± 0.077 | 0.821 ± 0.13 | 0.879 ± 0.03 | 0.906 ± 0.036 | 0.955 ± 0.045 | 0.901 ± 0.034 | 1 ± 0.02 | 0.917 ± 0.099 | 0.923 ± 0.024 | 0.874 ± 0.054
